Laboratory results reported in patent US5580869A, “1N substituted pyrazino[2,3-c]-1,2,6-thiadiazine 2,2-dioxides” (Prodesfarma, S.A., priority 1992, dated 1996).
Read-outs that look alike come from different tables or passages of the source.

What was measured:
[1] = test system: platelet rich rabbit plasma; assay: In vitro platelet antiaggregation activity, arachidonic acid induced, platelet rich plasma; type: cell-based; details: Oryctolagus cuniculus; for activity at 10 µg/mL: 10 mcg/ml, arachidonic acid 50 mcg/ml
Experimental: (§1) The platelet antiaggregation activity was determined in vitro using platelet rich rabbit plasma and arachidonic acid (50 mcg/ml) as aggregation inducing agent. The results are given for tracheal relaxation as percentage inhibition of the tracheal tone relative to the maximum relaxation induced by noradrenaline (0.3 mcg/ml) and for the platelet aggregation as a percentage of the maximum effect observed with the proaggregation agent.

human platelets = assay: In vitro inhibition of human platelet aggregation, Born's method; type: cell-based
Experimental: The platelet antiaggregation activity of the active products in the initial screening (Table 4) has been confirmed and extended by evaluating the capacity thereof to inhibit in vitro the aggregation of human platelets using Born's method. ADP (1 mcM), collagen (2 mcg/ml), arachidonic acid (1 mM), U-46619 (1,4 mcM) and IBOP (225 nM) were used as aggregation inducing agents. The results obtained (Table 5) show the capacity of the products tested to inhibit dose dependently the platelet aggregation induced by collagen, arachidonic acid, U-46619 and IBOP, probably through interaction with the platelet endoperoxide/thromboxane receptor. Therefore, said compounds might be potentially useful in the treatment of disorders in which the thromboxanes play a part, such as myocardial infarct, cerebrovascular diseases and asthmatic and/or inflammatory states.

[2] = test system: isolated guinea pig trachea; assay: In vitro trachea relaxing activity (spontaneous tone in isolated trachea, method of Luduena); type: cell-based; details: Cavia porcellus, 30 mcg/ml, relative to maximum relaxation by noradrenaline 0.3 mcg/ml
Experimental: as §1

[3] = test system: histamine induced bronchospasm in anaesthetized guinea pig; assay: In vivo bronchodilatory effect, histamine induced bronchospasm (Konzett and Rossler); details: area under the curve relative to theophylline
Experimental: Konzett and Rosslet's technique was used for evaluation, with the capacity of the tested products, when administered intraduodenally at dose levels of 25 and 100 mg/kg, to antagonize a histamine induced bronchospasm (7.5 mcg/ml) in anaesthetized guinea pig being determined. Theophylline (25 mg/kg, i.d.) was used as reference drug, with the areas under the curve defined by the bronchospasm inhibition percentages and the post-administration time being compared.

rats = assay: Diuretic and saluretic activity (urine volume and electrolyte excretion over 6 h), technique of Lipschits et al.; type: in vivo; details: rat, 20 mg/kg po, (N) = not statistically significant vs control
Experimental: The synthesized compounds were, therefore, subjected a pharmacological screening to evaluate a possible diuretic and salt excreting activity. Thus, an acute dose of each of the products of synthesis (20 or 25 mg/kg) was administered to rats and the amount of urine and the excretion of electrolytes was measured, following the technique described by Lipschits et al., with certain modifications (J. Pharmacol. Exp.Ther. 1943-79; 97-110).
The volume (ml/kg/6 h), the pH and the excretion of sodium, potassium and chloride ions (mEq/kg/6 h) were determined on the urine quantitatively collected over 6 hours, using triamterene and hydrochlorothiazide as reference diuretics.

[4] = IBOP 225 nM, read-out: Concentration inhibiting > 60% platelet aggregation, IBOP
[5] = U-46619 1,4 mcM, read-out: Concentration inhibiting > 60% platelet aggregation, U-46619
[6] = arachidonic acid 1 mM, read-out: Concentration inhibiting > 60% platelet aggregation, arachidonic acid
[7] = collagen 2 mcg/ml, read-out: Concentration inhibiting > 60% platelet aggregation, collagen

Row | SMILES | activity at 10 µg/mL [1] [%] | IC60 (human platelets; [4]) [nM] | IC60 (human platelets; [5]) [nM] | IC60 (human platelets; [6]) [nM] | IC60 (human platelets; [7]) [nM] | activity at 30 µg/mL [2] [%] | Bronchodilatory activity (area ratio) ([3]; 25 mg/kg i.d.) | Bronchodilatory activity (area ratio) ([3]; 100 mg/kg i.d.) | also measured
1 | CCN1c2nc(-c3ccccc3)c(-c3ccccc3)nc2C(N)=NS1(=O)=O [1-ethyl-6,7-diphenyl, 4-amino-1-ethyl-6,7-diphenylpyrazino[2,3-c]-1,2,6-thiadiazine 2,2-dioxide] | 100 | 3000 | 1000 | 30000 | 1000 | – | – | – | –
2 | CCN1c2ncc(C)nc2C(N)=NS1(=O)=O [1-ethyl-6-methyl, 4-amino-1-ethyl-6-methylpyrazino[2,3-c]-1,2,6-thiadiazine 2,2-dioxide] | – | – | – | – | – | 67 | 0.8 | 1.3 | –
3 | CCN1c2ncc(-c3ccccc3)nc2C(N)=NS1(=O)=O [1-ethyl-6-phenyl, 4-amino-1-ethyl-6-phenyl-pyrazino[2,3-c]-1,2,6-thiadiazine 2,2-dioxide] | 100 | 1000 | 10000 | 30000 | 1000 | – | – | – | –
4 | CCN1c2nc(C)c(-c3ccccc3)nc2C(N)=NS1(=O)=O [1-ethyl-6-phenyl-7-methyl, 4-amino-1-ethyl-6-phenyl-7-methylpyrazino[2,3-c]-1,2,6-thiadiazine 2,2-dioxide] | 100 | 3000 | 3000 | 30000 | 1000 | 93 | – | – | response vs control in vivo at 20 mg/kg (rats; read-out: Cl excretion, treated group/control group ratio): 123%; response vs control in vivo at 20 mg/kg (rats; read-out: K excretion, treated group/control group ratio): 85%; response vs control in vivo at 20 mg/kg (rats; read-out: Na excretion, treated group/control group ratio): 142%; response vs control in vivo at 20 mg/kg (rats; read-out: Na/K): 165%; response vs control in vivo at 20 mg/kg (rats; read-out: Volume urine, treated group/control group ratio): 121%
5 | CCN1c2nc3c(nc2C(N)=NS1(=O)=O)CCCC3 [4-amino-1-ethyl-6,7,8,9-tetrahydro-1,2,6-thiadiazine[3,4-b]quinoxaline 2,2-dioxide] | – | – | – | – | – | 82 | 0.6 | 0.4 | –
6 | CCN1c2nc(-c3ccccc3)c(Br)nc2C(N)=NS1(=O)=O [6-bromo-1-ethyl-7-phenyl, 4-amino-6-bromo-1-ethyl-7-phenylpyrazino[2,3-c]-1,2,6-thiadiazine 2,2-dioxide] | 100 | – | – | – | – | 63 | – | – | –
7 | CC(=O)Oc1ccccc1C(=O)O [Aspirin, reference compound] | – | – | – | – | – | – | – | – | activity at 2.5 µg/mL ([1]; read-out: platelet antiaggregation activity (%)): 100%
8 | Cn1c(=O)c2[nH]cnc2n(C)c1=O [Theophylline, reference compound] | – | – | – | – | – | 60 | 1 | 1 | –
